Key:
[1] = target: T1, bovine derivation odorant binding protein (OBPb) (Bos taurus, UniProt P07435); test: Fluorometry of OBPb with DMO and BPA at different concentrations (Inventive Example 2); details: for attenuation of fluorescence intensity versus concentration: 10^−9 to 10^−6 M
T1 sequence (P07435 1-159): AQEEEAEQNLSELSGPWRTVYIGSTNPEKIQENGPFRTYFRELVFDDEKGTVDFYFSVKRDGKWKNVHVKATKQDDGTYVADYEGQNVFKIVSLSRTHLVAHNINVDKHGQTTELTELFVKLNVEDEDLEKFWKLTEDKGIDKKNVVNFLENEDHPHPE
Method: In preparation of the OBPb solution employed for Inventive Example 2, an OBPb solution of 250 nM in concentration was prepared by a method similar to that in Inventive Example 1.
In preparation of the DMO solutions and the BPA solutions employed for Inventive Example 2, on the other hand, two types of odorants of DMO and BPA were dissolved in ethanol (EtOH) respectively, for preparing a solution of 10^−2 M in concentration as to each odorant. Further, the DMO solution and the BPA solution of 10^−2 M in concentration prepared in the aforementioned manner were diluted with EtOH respectively, thereby preparing solutions of 10^−3 M, 10^−4 M, 10^−5 M and 10^−6 M in concentration respectively. Thus, DMO solutions and BPA solutions of 10^−3 M, 10^−4 M, 10^−5 M and 10^−6 M in concentration were prepared.
300 μl of the OBPb solution of 250 nM in concentration and 0.3 μl of each of the DMO solutions of 10^−3 M, 10^−4 M, 10^−5 M and 10^−6 M in concentration prepared in the aforementioned manner were mixed with each other thereby preparing sample solutions having final DMO concentrations of 10^−9 M, 10^−8 M, 10^−7 M and 10^−6 M respectively. Sample solutions having final concentrations of 10^−9 M, 10^−8 M, 10^−7 M and 10^−6 M respectively were prepared also as to BPA by a preparation method similar to that for the case of DMO.
After preparing the sample solutions in the aforementioned manner, the fluorescence intensity was measured as to each sample solution by a method similar to that in Inventive Example 1. Further, the relation between the concentrations and the fluorescence intensity of DMO and BPA was investigated on the basis of results at a point after a lapse of 20 minutes from initiation of measurement and at a point after a lapse of 30 minutes from initiation of measurement among results obtained by measuring the fluorescence intensity.
Also in this case, the point of initiation of measurement was set to the point of an elapsed time of 0 minutes while setting the fluorescence intensity at this point to 100% as a reference value for calculating a relative value of the fluorescence intensity at each point on the basis of this reference value.

OBPb [2] = target: T2, OBPb (Bos taurus, UniProt P07435); test: Time variation of tryptophane and AMA fluorescence upon addition of AMA to OBPb; type: binding, bovine; details: ex 295 nm
T2 sequence (P07435 1-159): T1 sequence (P07435 1-159)
Method: (§1) An OBPb solution of 10 μM in concentration was prepared. AMA, DMO and geraniol were dissolved in ethanol respectively, for preparing an AMA solution, a DMO solution and a geraniol solution of 10^−2 M in concentration.
Then, time variations of fluorescence from AMA and fluorescence from tryptophane upon addition of AMA were measured. FIG. 13 illustrates results of measurement of fluorescence intensity change of tryptophane bonded with AMA. The excitation wavelength for tryptophane is 295 nm, and the fluorescence wavelength is 340 nm. FIG. 14 illustrates results of measurement of fluorescence intensity change of AMA bonded with […]. The excitation wavelength for AMA is 295 nm, and the fluorescence wavelength is 480 nm. Referring to FIGS. 13 and 14, the horizontal axes show post-addition elapsed times, and the vertical axis show relative fluorescence intensity difference levels. The relative fluorescence intensity difference was calculated by dividing the difference between fluorescence intensity at a time 0 and fluorescence intensity at each time by the fluorescence intensity at the time 0.

OBPb [3] = target: T2, OBPb; test: Dissociation constant KD of odorant for OBPb; type: binding, bovine; details: affinity of odorant for OBPb
OBPb-norm (normal OBPb) = target: T3, OBPb-norm (normal OBPb) (Bos taurus, UniProt P07435); test: Relative tryptophane fluorescence intensity change after DMO addition, OBPb-norm; type: binding, bovine; details: DMO 10 μM, OBPb 250 nM, 25 degrees, ex 295 nm, em 340 nm
T3 sequence (P07435 1-159): T1 sequence (P07435 1-159)
Method: (§2) OBPb-norm shown in FIG. 7(a) is normal (unvaried) OBPb. OBPb-del shown in FIG. 7(b) is OBPb obtained by deleting Phe (phenylalanine) 149 up to Glu (glutamic acid) 159.
(§3) As to the OBPb-norm and the OBP-del, the relation between post-addition elapsed times and change of relative fluorescence intensity was investigated by adding dimethyl octanol (DMO) employed as an odorant to OBPb solutions.
(§4) The concentration of OBPb in PBS was set to 250 nM, and the concentration of a DMO solution was set to 10 μM. The DMO solution was added to the OBPb solution, which in turn was thereafter incubated at 25 degrees, for taking out part at each time and measuring fluorescence (excitation wavelength: 295 nm, fluorescence wavelength: 340 nm) of tryptophane present in the central pocket CP.
(§5) The difference in relative fluorescence intensity was calculated by dividing the difference between fluorescence intensity at a time 0 and fluorescence intensity at each time by the fluorescence intensity at the time 0.

OBPb bonded with AMA = target: T4, OBPb bonded with AMA (Bos taurus, UniProt P07435); test: Substitution of AMA bonded to OBPb by other odorants (AMA and tyrosine fluorescence); type: binding, bovine; details: for fluorescence intensity of tyrosine on adding the odorant: ex 250 nm, em 300 nm, immediately after addition (0 minutes); for fluorescence intensity of AMA / dissociation of AMA from OBPb on adding the odorant: ex 295 nm, em 481 nm, 0 minutes
T4 sequence (P07435 1-159): T1 sequence (P07435 1-159)
Method: Further, investigation was made as to how an odorant once bonded to OBPb behaves when other odorants are thereafter bonded. Aminoanthracene (AMA) which is a fluorescent odorant was employed as a previously bonded odorant, and DMO and geraniol were used as odorants added to the AMA bond.
as §1
First, 0.1 μl of an AMA solution was added to 100 μl of an OBPb solution, and left to stand at 25° C. for one hour for bonding AMA to OBPb. Phosphate buffer saline (PBS) was added to this solution up to 4 ml (diluted to 40 times), 4 μl of ethanol, DMO or geraniol was added and thereafter parts of 300 μl were taken out after lapses of 0, 5, 10, 15, 20, 25, 30, 40 and 60 minutes for measuring fluorescence intensity of AMA (excitation wavelength: 295 nm, measurement wavelength: 481 nm) and fluorescence intensity of […].
In measurement of the fluorescence intensity of tyrosine, the excitation wavelength is 250 nm, and the measurement wavelength is 300 nm. Tyrosine is present in an internal cavity of a monomer of OBPb. Therefore, dissociation of the odorant from the internal cavity IC can be measured by change of the fluorescence intensity of tyrosine (the fluorescence reduces when tyrosine becomes hydrophilic).

[4] = target: T5, OBPb-del (OBPb with Phe 149 up to Glu 159 deleted) (Bos taurus, UniProt P07435); test: Relative tryptophane fluorescence intensity change after DMO addition, OBP-del; type: binding, bovine; details: DMO 10 μM, OBPb 250 nM, 25 degrees, ex 295 nm, em 340 nm
T5 construct: made in house
T5 sequence (P07435 1-148): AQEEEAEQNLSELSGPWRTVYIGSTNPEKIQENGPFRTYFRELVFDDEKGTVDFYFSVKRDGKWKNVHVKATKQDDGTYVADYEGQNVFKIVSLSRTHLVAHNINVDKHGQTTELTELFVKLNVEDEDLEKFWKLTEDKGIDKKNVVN
Method: as §2, §3, §4, §5

[5] = target: T1, bovine derivation odorant binding protein (OBPb); test: Fluorometry of tryptophane fluorescence of OBPb with four odorants (Inventive Example 1); details: for affinity for the OBPb (relative, among the four odorants): FIG. 4(b); for reduction of the fluorescence intensity: odorant 10 μM, OBPb 250 nM, excitation 280 nm, fluorescence 340 nm, among the four odorants, FIG. 4(b) at 10 minutes
Method: In order to prepare the OBPb solution employed for Inventive Example 1, bovine derivation odorant binding protein (OBPb) was first dissolved in a phosphate buffer (PBS; phosphate buffered saline), and PBS was further added to this OBPb solution for diluting the same until the concentration of the solution reached 250 nM.
In order to prepare the odorant solution employed for Inventive Example 1, four types of odorants, i.e., dimethyl octanol (DMO), citronellal, citronellol and geraniol were dissolved in ethanol solutions (EtOH) respectively, for preparing an odorant solution of 10^−2 M in concentration as to each odorant.
300 μl of the OBPb solution of 250 nM in concentration and 0.3 μl of each odorant solution of 10^−2 M in concentration prepared in the aforementioned manner were mixed with each other for preparing a sample solution employed for measuring fluorescence intensity as to each of the four types of odorants. In this case, the final concentration of the odorant in each sample solution is 10 μM. A sample of only OBPb containing no odorant, i.e., that obtained by mixing an OBPb solution and an ethanol solution with each other, was also prepared as a comparative sample.
Each sample solution prepared in the aforementioned manner was introduced into a quartz cell for fluorescence while sealing an opening for preventing evaporation. The aforementioned cell was set in a cell holder of a fluorometer (F-4000 by Hitachi, Ltd.) and left to stand for 10 minutes for temperature balancing.
In measurement of the fluorescence intensity of each sample solution, a shutter of the fluorometer was first opened for irradiating the sample solution with light of 280 nm in wavelength from a slit of 10 nm in width and exciting tryptophane constituting the OBPb contained in the sample solution. Fluorescence of 340 nm in wavelength obtained from the tryptophane excited in this manner was taken out through the slit of 10 nm in width, for measuring the intensity of the obtained fluorescence.
In this case, the switching time for the shutter of the fluorometer was set to two seconds for opening/closing the shutter at intervals of five minutes and measuring the fluorescence intensity of the sample solution over 30 minutes.
Referring to FIG. 4, the point of initiation of measurement is set to the point of the elapsed time of 0 minutes, and the fluorescence intensity of the sample solution at this point is set to 100%. Thus, the fluorescence intensity at the elapsed time of 0 minutes, i.e., the point of initiation of measurement was set to 100% as to each sample solution for regarding this as a reference value and calculating a relative value of the fluorescence at each point every five minutes on the basis of this reference value.

OBP-del = target: T6, OBP-del (Bos taurus, UniProt P07435); test: Time variation of peaks of tryptophane difference fluorescence spectra, OBP-del; type: binding, bovine; details: during bonding reaction, 0 to 60 minutes
T6 construct: made in house
T6 sequence (P07435 1-148): T5 sequence (P07435 1-148)
Excerpt: (§6) Then, time variations of peaks of fluorescence spectra of tryptophane in central pockets CP bonded with odorants were investigated as to DMO and geraniol employed as odorants.
(§7) When tryptophane is in OBPb, the peak wavelength of the fluorescence spectrum of tryptophane is 345 nm. In general, the fluorescence wavelength of tryptophane shifts to a longer wavelength in hydrophilic environment, and shifts to a shorter wavelength in hydrophobic environment. At this point, a fluorescence spectrum upon bonding with an odorant was measured for calculating difference between the same and a spectrum at 0 minutes and investigating the relation between the peak intensity and the elapsed time.
(§8) The difference spectrum was calculated by subtracting the fluorescence spectrum at each time from the fluorescence spectrum at 0 minutes. When a peak of the fluorescence spectrum at a certain time shifts to a shorter wavelength beyond 345 nm (i.e., rendered hydrophobic), therefore, it follows that the peak of the difference spectrum shifts to a longer wavelength beyond 345 nm to the contrary.

[6] = target: T7, OBPb-norm central pocket CP (Bos taurus, UniProt P07435); test: Time variation of peaks of tryptophane difference fluorescence spectra, OBPb-norm; type: binding, bovine; details: 0 to 60 minutes after addition
T7 sequence (P07435 1-159): T1 sequence (P07435 1-159)
Excerpt: as §6, §7, §8

SMILES | attenuation of fluorescence intensity versus concentration ([1]; after 20 and 30 minutes) | range in which discrimination based on the fluorescence intensity is possible ([1]; after 20 and 30 minutes) | range in which discrimination based on the fluorescence intensity is possible ([1]; conversion of 10^−9 M) | fluorescence intensity of tryptophane after addition of AMA (OBPb [2]; em 340 nm) | fluorescence intensity of AMA after addition of AMA (OBPb [2]; em 480 nm) | Kd (OBPb [3]) | relative fluorescence intensity change of tryptophane with time (OBPb-norm (normal OBPb)) | fluorescence intensity of tyrosine on adding the odorant (OBPb bonded with AMA) | fluorescence intensity of AMA / dissociation of AMA from OBPb on adding the odorant (OBPb bonded with AMA) | relative fluorescence intensity change of tryptophane with time [4] | affinity for the OBPb (relative, among the four odorants) [5] | reduction of the fluorescence intensity [5] | peak wavelengths of the difference spectra of tryptophane (OBP-del) | bonding to the central pocket CP (from peak wavelengths of difference spectra) [6]
CC(C)(c1ccc(O)cc1)c1ccc(O)cc1 [BPA, bisphenol A] | attenuation of the fluorescence intensity is reduced as the concentration of DMO or BPA is increased | 10^−9 M | about 200 ppt | – | – | – | – | – | – | – | – | – | – | –
Nc1cccc2cc3ccccc3cc12 [AMA, Aminoanthracene] | – | – | – | temporarily reduces after addition of AMA and thereafter increases | increases after addition of AMA, takes a constant value and thereafter reduces | ~1300 nM | – | – | – | – | – | – | – | –
CC(C)CCCC(C)CCO (stereo not shown) [DMO] | attenuation of the fluorescence intensity is reduced as the concentration of DMO or BPA is increased | 10^−9 M | about 200 ppt | – | – | ~300 nM | rises with time | No change of the fluorescence intensity was observed | AMA dissociates immediately after addition | no variation with presence/absence of the odorant | highest affinity | at the minimum | remained unchanged | dissociates after being bonded to the central pocket CP
CC(C)=CCC/C(C)=C/CO [geraniol] | – | – | – | – | – | ~3000 nM | – | reduction of the fluorescence intensity was observed | AMA dissociates immediately after addition | – | lowest affinity | at the maximum | remained unchanged | remains bonded to the central pocket CP
